Assay results: PMC10818546, “CYP1-Activation and Anticancer Properties of Synthetic Methoxylated Resveratrol Analogues” (Molecules, 2024)
Where two headings read alike, the source gives them in different places.

What was measured:
[1] = system: MCF7 (TCDD); assay: MTT cytotoxicity assay, TCDD-induced MCF7 cells; type: cell-based, human; conditions: Homo sapiens
Method: (§1) The antiproliferative activity of the resveratrol analogues was investigated using a human breast cell line panel, which has been characterised for CYP1 expression in our laboratories. IC50 values for both cis- and trans-isomers were determined using a standard 3-[4,5-dimethylthiazol-2-yl]-2,5-diphenyl tetrazolium bromide (MTT) cell viability assay and are shown in Table 1 (trans-stilbene analogues) and Table 2 (cis-stilbene analogues).
(§2) MCF7 cells are both ER positive and Ah receptor positive and have been well documented for their CYP1 expression, and it is known that treatment with TCDD elevates CYP1A1 and CYP1B1 expression. The cells were treated with DMSO (0.1%) for 24 h for constitutive expression, whereas for inducible CYP1 expression, the cells were treated with TCDD (10 nM) for 24 h.
(§3) A standard MTT (3-[4,5-dimethylthiazol-2-yl]-2,5-diphenyl tetrazolium bromide) cell viability assay was employed to evaluate the cytotoxicity of the stilbenes prepared. The MTT assay is a rapid quantitative spectrophotometric method for determining cell growth (viability) due to necrosis or apoptosis in monolayer-cultured cell lines in response to external factors. It is widely employed to evaluate the cytotoxicity of potential medicinal agents.
(§4) MCF7 cells were grown in RPMI-1640 medium with phenol red and 10% (v/v) heat-inactivated (heated to 56 °C for 45 min) foetal calf serum. MDA-468 cells were grown in RPMI-1640 medium with 10% (v/v) heat-inactivated foetal calf serum and L-glutamine (2 mM) without phenol red. MCF-10A cells were grown in Dulbecco’s modified Eagle’s medium/ Ham’s F-12 medium (1:1) with 5% (v/v) heat-inactivated foetal calf serum, epidermal growth factor (20 ng/mL), insulin ([…]) and hydrocortisone (500 ng/mL). Cells were maintained at 37 °C, 5% CO2/95% air with 100% humidity and passaged every 2–3 days using trypsin EDTA solution (0.25% w/v). Adhered cells at sub confluence were harvested for experimental use.
(§5) Aliquots of cell suspensions (100 µL at 2 × 10^3 cells per ml) were dispensed into sterile 96-well microtiter flat-bottomed plates. For the MDA468 and MCF10A cell lines, the plates were incubated at 37 °C, 5% CO2/95% air with 100% humidity for 24 h prior to the addition of test compounds. For MCF7 cells, after allowing approximately 4 h for cells to adhere, 100 µL of medium containing TCDD (from 100 mM stock in DMSO) or medium with 0.2% (v/v) DMSO was added to give a final concentration of 10 nM TCDD and 0.1% (v/v) DMSO. After 24 h, the medium was aspirated and replaced with fresh medium (100 µL) before the addition of test compounds.
(§6) Then, 100 µL aliquots of test compounds were added within 30 min into the wells from a 100 mM stock solution in DMSO and serially diluted to give final concentrations of […], 0.01, 0.003, 0.001 and 0.0003 µM. […] The cells were allowed to grow for 96 h at 5% CO2, 37 °C, to give 80–90% confluence in the control wells, after which 50 µL of 2 mg/mL MTT (final concentration 0.4 mg/mL) in sterile phosphate buffer was added to each well and the plates were further incubated for 2 h. All medium was aspirated and the formazan precipitate generated by viable cells was solubilised by 150 µL of DMSO. All the plates were vortexed and the absorbance at 540 nm was determined using a SpectraMax M5 plate reader (Molecular Devices, Wokingham, UK).
(§7) Results were expressed as a percentage of the control value versus the negative logarithm of the molar drug concentration range using GraphPad Prism (Version 5.00). Relative toxicities of each compound within each cell line were expressed as 50% of growth inhibition (IC50). All determinations were carried out in quadruplicate.

[2] = system: MCF10A; assay: MTT cytotoxicity assay, MCF10A non-tumour control cells; type: cell-based; conditions: Homo sapiens, MCF-10A, read-out: IC50 MCF10A
Method: as §1
MCF10A cells are non-tumourigenic human mammary epithelial in origin which have been spontaneously immortalised without chemical intervention. CYP1 activity in MCF10A cells is negligible. […] Thus, MCF10A cell line is commonly used as a control in cytotoxicity assays.
as §3, §4, §5, §6, §7

[3] = system: MCF7; assay: MTT cytotoxicity assay, MCF7 cells (uninduced); type: cell-based, human; conditions: Homo sapiens, read-out: IC50 MCF7
Method: as §1, §2, §3, §4, §5, §6, §7

[4] = system: MDA468; assay: MTT cytotoxicity assay, MDA468 cells; type: cell-based, human; conditions: for IC50: Homo sapiens, read-out: IC50 MDA468; for TS = tumour selectivity = IC50 MCF10A/IC50 MDA468: ratio of IC50 values
Method: as §1
MDA468 cells represent an aggressive multi-drug-resistant tumour type and are ER negative but are aryl hydrocarbon (Ah) receptor positive in the presence of TCDD [46].
as §3, §4, §5, §6, §7

[5] = mouse, 0.2% (w/w) of the diet for 14 weeks; cited from earlier work
[6] = system: MDA231; assay: MTT cytotoxicity assay, MDA231 cells; type: cell-based; conditions: Homo sapiens, MDA-MB-231; triple negative breast tumour cell line
Method: DMU212 was also evaluated for cytotoxic activity in the aggressive, triple negative breast tumour cell line MDA231. This cell line has been reported to only weakly express CYP1A1 but constitutively express CYP1B1 [33]. […] However further studies would be required to confirm this statement.
MDA231 breast cancer cell line represents an aggressive tumour type. Treatment of this ER-negative and Ah receptor-positive cell line with TCDD has been reported to only weakly induce CYP1A1 mRNA expression but enhance the constitutive CYP1B1 expression. Other researchers have reported the ratio of active CYP1A1/CYP1B1 protein as 16/84 ratio in MDA231 [32].
as §3, with “It is widely employed to evaluate the cytotoxicity of potential medicinal agents.” left out
Then, 100 µL aliquots of test compounds were added within 30 min into the wells from a 100 mM stock solution in DMSO and serially diluted to give final concentrations of […], 0.01, 0.003, 0.001 and 0.0003 µM. […] All the plates were vortexed and the absorbance at 540 nm was determined using a SpectraMax M5 plate reader (Molecular Devices, Wokingham, UK). […]

[7] = system: CYP1 enzymes (CYP1A1, CYP1A2, CYP1B1); assay: Incubation with human CYP1 Supersomes, HPLC analysis; type: in vitro ADME; conditions: NADPH, 37 °C, 20 min
Method: The CYPs isozyme panel used in this study were prepared from transformed insect cells expressing human CYPs (CYP1A1, CYP1A2 or CYP1B1) with co-expression of human NADPH reductase (Supersomes^TM). […] The general procedure was as follows: DMU212 was separately incubated with CYP1A1, CYP1A2, CYP1B1, CYP3A4 and non-CYP-expressing Supersomes^TM in the presence of phosphate buffer and NADPH at 37 °C. Samples were taken at regular intervals of 5 min over a 20 min period, and the enzymatic reaction in the sample was terminated immediately. Following centrifugation, the supernatants were removed and analysed by HPLC.
After 10 min of analysis, a linear gradient was initiated with the acetonitrile content rising to 70% over 5 min and with the 50 mM ammonium acetate decreasing accordingly. An equilibration time of 6 min was allowed between each sample. Analysis was conducted with a Jasco (Jasco UK limited) analytical system consisting of an AS841 autosampler, PU980 pump and LG low-pressure tertiary mixing valve, FP1500 fluorescence detector (JASCO UK Ltd., Heckmondwike, UK), column heater/ chiller (Jones Chromatography), and DG440 in-line degasser (Phenomenex, UK). Analytical data were collected using Borwin HPLC software (version 1.5), For the detection of DMU215, an in-line photoreactivity cell was used (Beam Boost^TM, Advanced Separations Technology Incorporated).

[8] = system: human breast cell line panel; assay: MTT cytotoxicity assay, statements for all cell lines of the panel; type: cell-based; conditions: MCF7, MCF7 (TCDD), MCF10A, MDA468, summary of the text; for IC50: Homo sapiens, read-out: IC50 for all cell lines tested
Method: as §1, §3, §4, §5, §6, §7

[9] = MCF7, MTT assay, 96 h incubation, cells induced with 10 nM TCDD for 24 h, read-out: IC50 MCF7 (TCDD)
[10] = 96 h, MTT assay, 96 h incubation, non-tumour control cells
[11] = MCF7, 96 h, MTT assay, 96 h incubation, 37 °C, means of quadruplicate

Compound	TS = tumour selectivity = IC50 MCF10A/IC50 MDA468 [4]	IC50 [1, 9] [µM]	IC50 [2, 10] [µM]	IC50 [3, 11] [µM]	IC50 [8] [µM]	IC50 ([4]; MTT assay, 96 h incubation) [µM]	further results
COc1ccc(/C=C/c2cc(OC)c(OC)c(OC)c2)cc1 [DMU212, (E)-4,3′,4′,5′-tetramethoxystilbene]	over 4000						IC50 ([1]; MCF7, read-out: IC50 MCF7 (TCDD)): 0.12 µM; IC50 ([2]; 96 h): 4.3 µM; IC50 ([3]; MCF7, 96 h): 2.6 µM; IC50 ([4]; 96 h): 0.001 µM; TS = tumour selectivity = IC50 MCF10A/IC50 MDA468 ([4]; listed as 212): 4300; hepatotoxicity [5]: without any obvious signs of hepatoxicity; steady state level in the liver [5]: up to 0.7 nmol/g tissue; IC50 [6]: > 100 µM; substrate for CYP1 enzymes [7]: substrate for CYP1 enzymes
COc1ccc(/C=C/c2cc(OC)c(OC)c(OC)c2)cc1OC [DMU2417]	2	14	18	14	> 9	9	
COc1cc(/C=C\c2ccccc2)cc(OC)c1OC [DMU508]	0.9	4	7	5	4 to 9	9	
COc1ccc(C=Cc2cc(OC)c(OC)c(OC)c2)cc1O [DMU214, 3,4,5,4′-tetramethoxy-3′-hydroxy stilbene]	1	0.11	0.05	0.06		0.05	IC50 for all cell lines tested [8]: sub-micromolar IC50 values
COc1cc(/C=C/c2ccccc2)cc(OC)c1OC [DMU507]	7	50	70	50	> 10	10	
COc1ccc(/C=C/c2cc(OC)c(OC)c(OC)c2)c(OC)c1 [DMU219]	2	1.4	1.4	1.7		0.8	
COc1ccc(CCc2cc(OC)c(OC)c(OC)c2)cc1 [DMU224]		0.06	0.06	0.06		0.005	
COc1ccc(/C=C/c2ccc(OC)cc2)cc1 [DMU205]	1	28	100	28		100	
COc1ccc(/C=C\c2ccc(OC)c(OC)c2OC)cc1 [DMU548]		7.1				30	IC50 ([2]; MTT assay, 96 h incubation, non-tumour control cells): 100 µM; IC50 ([3]; MCF7, MTT assay, 96 h incubation, 37 °C, means of quadruplicate): 8 µM
COc1cc(C=Cc2ccc(O)c(O)c2)cc(OC)c1OC [DMU283, 3,4,5-trimethoxy-3′,4′-dihydroxy stilbene]	0.16	0.14	0.008	0.02		0.05	IC50 for all cell lines tested [8]: sub-micromolar IC50 values
